From patent publication US11104648B2, “Pyrazole derivative” (Zhejiang Research Institute of Chemical Industry Co., Ltd., priority 2018, dated 2021) come the findings set out here.

Where two headings read alike, the source gives them in different places.

Holding throughout (assay type): in vivo
For experiment [1], the system named is Eggs of Tetranychus Cinnabarinus. The experiment is described as follows: Activity assay of eggs of Tetranychus cinnabarinus (spray method, ovicidal). The settings on record: Tetranychus cinnabarinus; for pest or weed control at 5 µg/mL: concentration 5 mg/L, non-incubated eggs counted as dead; for pest or weed control at 2 µg/mL: concentration 2 mg/L. The procedure, abridged:
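Ovicidal spray test: compound dissolved in DMF, diluted with 1‰ Tween 80 (DMF ≤10%), sprayed on eggs laid during 24 h by females on broad bean leaves. Culture at 26±2° C, 70–80% RH, 16 h photoperiod; non-hatched eggs scored as dead when blank control hatched; three repeats.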

Experiment [2] deals with adult Tetranychus cinnabarinus. Briefly: Activity assay of adult Tetranychus cinnabarinus (whole-plant spray on bean seedlings). The settings on record: 48 h; for pest or weed control at 2.5 µg/mL: concentration 2.5 mg/L; for pest or weed control at 1.25 µg/mL: concentration 1.25 mg/L. In a few lines: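 Whole plants sprayed after adult mite inoculation and initial census, using compound dissolved in DMF and made up with 1‰ Tween 80 water (DMF not above 10%). Mortality derived from survivor counts at 48 h after treatment. Each treatment run in triplicate.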

The subject of experiment [3] is Tetranychus cinnabarinus Nymphs. The experiment is described as follows: Activity assay of Tetranychus cinnabarinus nymphs (spray on broad bean leaves). Conditions: 48 h; for pest or weed control at 2.5 µg/mL: concentration 2.5 mg/L; for pest or weed control at 2.5 µg/mL / pest or weed control at 2 µg/mL: read-out: nymph-killing activity; for pest or weed control at 2 µg/mL: concentration 2 mg/L; for pest or weed control at 0.5 µg/mL: nymphs, concentration 0.5 mg/L, parallel determination, read-out: Death rate (%). In a few lines: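 Mortality, judged as no response to gentle touch, was scored 48 h after spraying Tetranychus cinnabarinus nymphs on broad bean leaves (eggs from females removed after 24 h). Test solutions: DMF-dissolved compound, ≤10% DMF, in 1‰ Tween 80; 26±2° C., 70%–80% RH, 16 h light; triplicate, blank control.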

Where [4] appears, read: spray, read-out: ovicidal activity.
[5] abbreviates: read-out: adult mite-killing activity.
[6] abbreviates: eggs, parallel determination, read-out: Death rate (%).
Setting [7] is: adult mites, parallel determination, read-out: Death rate (%).

Turning to `COCC(=O)OCO/C(=C(/C#N)c1ccc(C(C)(C)C)cc1)c1c(C)c(C)nn1C` [Compound 158], the pest or weed control at 5 µg/mL in experiment [1] (setting [4]) is at least 90%. Also, the pest or weed control at 2.5 µg/mL in experiment [2] (setting [5]) was at least 90%; in experiment [3], at least 95%.

For the compound `CCn1nc(C)cc1/C(OCOC(=O)C(C)(C)C)=C(\C#N)c1ccc(C(C)(C)C)cc1` [Compound 230], in experiment [1] (setting [4]), the pest or weed control at 2 µg/mL was at least 90% and the pest or weed control at 5 µg/mL is at least 90%. For the same compound, the pest or weed control at 2 µg/mL in experiment [1] (setting [6]) stood at 100%. Also, the pest or weed control at 1.25 µg/mL in experiment [2] (setting [7]) worked out at 100%. Also, in experiment [2] (setting [5]), the pest or weed control at 1.25 µg/mL is at least 90% and the pest or weed control at 2.5 µg/mL is at least 90%. In addition, in experiment [3], the pest or weed control at 2 µg/mL is at least 90%, the pest or weed control at 2.5 µg/mL is at least 95% and the pest or weed control at 0.5 µg/mL turned out to be 98%.

For the compound `CCn1nc(C)c(C)c1/C(OC(C)OC(=O)C(C)(C)CC)=C(\C#N)c1ccc(C(C)(C)C)cc1` (stereo not drawn) [Compound 416], the pest or weed control at 5 µg/mL in experiment [1] (setting [4]) was at least 90%. Also, the pest or weed control at 2.5 µg/mL in experiment [2] (setting [5]) was at least 90%; in experiment [3], at least 95%.

For `C=CC(=O)OC(C)O/C(=C(/C#N)c1ccc(C(C)(C)C)cc1)c1c(Cl)c(C)nn1CC` (stereo not drawn) [Compound 342], in experiment [1] (setting [4]), the pest or weed control at 5 µg/mL was at least 90%. Besides, the results for the pest or weed control at 2.5 µg/mL in experiment [2] (setting [5]) and in experiment [3] were at least 90% and at least 95%, respectively.

For `CCn1nc(C)cc1/C(OC(C)OC(=O)OCC(F)(F)F)=C(\C#N)c1ccc(C(C)(C)C)cc1` (stereo not drawn) [Compound 595], the pest or weed control at 5 µg/mL in experiment [1] (setting [4]) is at least 90%. In addition, the pest or weed control at 2.5 µg/mL was at least 90% in experiment [2] (setting [5]) and at least 95% in experiment [3].

For the compound `CSCCOC(=O)OCO/C(=C(/C#N)c1ccc(C(C)(C)C)cc1)c1cc(C)nn1C` [Compound 471], the pest or weed control at 5 µg/mL in experiment [1] (setting [4]) is at least 90%. In addition, the results for the pest or weed control at 2.5 µg/mL in experiment [2] (setting [5]) and in experiment [3] were at least 90% and at least 95%, respectively.

As to `CCn1nc(C)cc1/C(OCOC(=O)OCC(F)(F)F)=C(\C#N)c1ccc(C(C)(C)C)cc1` [Compound 563], in experiment [1] (setting [4]), the pest or weed control at 5 µg/mL is at least 90%. Besides, the pest or weed control at 2.5 µg/mL in experiment [2] (setting [5]) was at least 90%; in experiment [3], at least 95%.

`Cc1nn(C)c(/C(OCOC(=O)C2CCCCC2)=C(\C#N)c2ccc(C(C)(C)C)cc2)c1C` [Compound 161]: in experiment [1] (setting [4]), the pest or weed control at 5 µg/mL was at least 90%. The pest or weed control at 2.5 µg/mL in experiment [2] (setting [5]) was at least 90%; in experiment [3] it was at least 95%.

Take `CCn1nc(C)c(C)c1/C(OC(C)OC(=O)CSC)=C(\C#N)c1ccc(C(C)(C)C)cc1` (stereo not drawn) [Compound 410]: the pest or weed control at 5 µg/mL in experiment [1] (setting [4]) is at least 90%. Moreover, the pest or weed control at 2.5 µg/mL is at least 90% in experiment [2] (setting [5]) and at least 95% in experiment [3].

Take `CCn1nc(C)c(Cl)c1/C(OCOC(=O)C(C)(C)C)=C(\C#N)c1ccc(C(C)(C)C)cc1` [Compound 305]: in experiment [1] (setting [4]), the pest or weed control at 2 µg/mL is at least 90% and the pest or weed control at 5 µg/mL is at least 90%. Besides, in experiment [2] (setting [5]), the pest or weed control at 1.25 µg/mL was at least 90% and the pest or weed control at 2.5 µg/mL is at least 90%. For the same compound, in experiment [3], the pest or weed control at 2 µg/mL is at least 90% and the pest or weed control at 2.5 µg/mL was at least 95%.

With `CCOC(=O)OC(C)O/C(=C(/C#N)c1ccc(C(C)(C)C)cc1)c1c(Cl)c(C)nn1CC` (stereo not drawn) [Compound 772], in experiment [1] (setting [4]), the pest or weed control at 2 µg/mL was at least 90% and the pest or weed control at 5 µg/mL is at least 90%. Moreover, the pest or weed control at 2 µg/mL in experiment [1] (setting [6]) came out at 100%. In addition, in experiment [2] (setting [7]), the pest or weed control at 1.25 µg/mL worked out at 100%. In experiment [2] (setting [5]), the pest or weed control at 1.25 µg/mL was at least 90% and the pest or weed control at 2.5 µg/mL was at least 90%. In experiment [3], the pest or weed control at 2 µg/mL was at least 90%, the pest or weed control at 2.5 µg/mL was at least 95% and the pest or weed control at 0.5 µg/mL turned out to be 90%.

As for `CCn1nc(C)c(C)c1/C(OC(C)OC(=O)COC)=C(\C#N)c1ccc(C(C)(C)C)cc1` (stereo not drawn) [Compound 408], the pest or weed control at 5 µg/mL in experiment [1] (setting [4]) was at least 90%. Further, the pest or weed control at 2.5 µg/mL in experiment [2] (setting [5]) is at least 90%; in experiment [3], at least 95%.

With `CC(=O)OC(C)O/C(=C(/C#N)c1ccc(C(C)(C)C)cc1)c1c(Cl)c(C)nn1C` (stereo not drawn) [Compound 101], the pest or weed control at 5 µg/mL in experiment [1] (setting [4]) is at least 90%. Besides, the pest or weed control at 2.5 µg/mL was at least 90% in experiment [2] (setting [5]) and at least 95% in experiment [3].

`Cc1nn(C)c(/C(OC(C)OC(=O)c2ccccc2)=C(\C#N)c2ccc(C(C)(C)C)cc2)c1C` (stereo not drawn) [Compound 189]: the pest or weed control at 5 µg/mL in experiment [1] (setting [4]) is at least 90%. In addition, the pest or weed control at 2.5 µg/mL is at least 90% in experiment [2] (setting [5]) and at least 95% in experiment [3].

As for `CCn1nc(C)cc1/C(OCOC(C)=O)=C(\C#N)c1ccc(C(C)(C)C)cc1` [Compound 226], the figures for the pest or weed control at 2 µg/mL in experiment [1] (setting [4]), in experiment [1] (setting [6]) and in experiment [3] were at least 90%, 100% and at least 90%, respectively. Also, in experiment [1] (setting [4]), the pest or weed control at 5 µg/mL is at least 90%. The values for the pest or weed control at 1.25 µg/mL in experiment [2] (setting [7]) and in experiment [2] (setting [5]) were 96% and at least 90%, respectively. The pest or weed control at 2.5 µg/mL is at least 90% in experiment [2] (setting [5]) and at least 95% in experiment [3]. The pest or weed control at 0.5 µg/mL in experiment [3] stood at 90%.

Regarding `CCCC(=O)OC(C)O/C(=C(/C#N)c1ccc(C(C)(C)C)cc1)c1c(C)c(C)nn1C` (stereo not drawn) [Compound 178], the pest or weed control at 5 µg/mL in experiment [1] (setting [4]) is at least 90%. Besides, the results for the pest or weed control at 2.5 µg/mL in experiment [2] (setting [5]) and in experiment [3] were at least 90% and at least 95%, respectively.

With `CCCCC(=O)OCO/C(=C(/C#N)c1ccc(C(C)(C)C)cc1)c1c(C)c(C)nn1CC` [Compound 381], the pest or weed control at 5 µg/mL in experiment [1] (setting [4]) is at least 90%. The pest or weed control at 2.5 µg/mL was at least 90% in experiment [2] (setting [5]) and at least 95% in experiment [3].
